{
  "source": "paper PMC10376326",
  "about": "“Novel Acylselenourea Derivatives: Dual Molecules with Anticancer and Radical Scavenging Activity” (Antioxidants, 2023)",
  "key": {"[1]": {"tested_on": "DU-145 (prostate) cancer cell line", "experiment": "MTT cell viability assay, DU-145", "type": "cell-based, human", "details": "Homo sapiens, DU-145, 48 h; for activity at 10 µM: read-out: Cell growth %, DU-145, 10 µM, 48 h, MTT; for activity at 50 µM: read-out: Cell growth %, DU-145, 50 µM, 48 h, MTT; for IC50: read-out: IC50 DU-145", "procedure,_shortened": "(§1)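 MDA-MB-231, HTB-54 and DU-145 grown in RPMI 1640, HT-29 in McCoy's 5A (10% FBS). Output is % cell growth; IC50 determined; ≥3 experiments in quadruplicate.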"}, "[2]": {"tested_on": "DU-145 cells", "experiment": "Total ROS measurement (Muse Oxidative Stress Kit)", "type": "cell-based, human", "details": "DU-145, 16 h; 1.I and 5.I 10 µM, H2O2 0.9 µM", "experimental": "Total ROS levels were measured in DU-145 cells treated with 1.I and 5.I using the Muse Oxidative Stress Kit (EMD Millipore, Billerica, MA, USA) according to the manufacturer’s protocol. This kit uses Muse oxidative stress reagent to detect ROS inside cells. This kit identifies two different cell populations: ROS(−) cells and ROS(+) cells. In the graph, the ROS(−) population is represented by the M1 peak and the ROS(+) cells by the M2 peak. DU-145 cells treated with H2O2 (0.9 µM) were used as positive controls to identify M1 and M2 peaks. Percentages of ROS(−) and ROS(+) cells were measured using the Muse Cell Analyzer."}, "[3]": {"experiment": "DPPH radical scavenging assay", "type": "biochemical", "procedure,_shortened": "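Acylselenoureas at 0.003 and 0.03 mg/mL (final dilutions from DMSO stock, via methanol) mixed with DPPH• prepared at 0.04 mg/mL in methanol. Absorbance decrease at 517 nm followed 0–120 min; % scavenging calculated relative to negative control, triplicates.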"}, "[4]": {"tested_on": "HT-29 (colon) cancer cell line", "experiment": "MTT cell viability assay, HT-29", "type": "cell-based", "details": "Homo sapiens, HT-29, 48 h, read-out: Cell growth %; for activity at 10 µM: HT-29, 10 µM; for activity at 50 µM: HT-29, 50 µM", "procedure,_shortened": "as §1"}, "[5]": {"tested_on": "HTB-54 (lung) cancer cell line", "experiment": "MTT cell viability assay, HTB-54", "type": "cell-based, human", "details": "for activity at 10 µM: read-out: Cell growth %, HTB-54, 10 µM, 48 h, MTT; for activity at 50 µM: read-out: Cell growth %, HTB-54, 50 µM, 48 h, MTT; for SI: IC50 (BEAS-2B)/IC50 (HTB-54)"}, "[6]": {"details": "Homo sapiens, HTB-54, 48 h, read-out: IC50 HTB-54, Lung, MTT, 48 h"}},
  "note": "Like-named read-outs stand apart in the source and are kept apart here.",
  "data": [
    {"smiles": "CCCNC(=[Se])NC(=O)c1ccccc1", "note": "[Compound 5.I, N-(propylcarbamoselenoyl)benzamide]", "values": [
      {"measurement": "activity at 10 µM", "setting": "[1]", "result": "42.4 ± 4.9", "unit": "%"},
      {"measurement": "activity at 50 µM", "setting": "[1]", "result": "47.9 ± 3.9", "unit": "%"},
      {"measurement": "IC50", "setting": "[1]", "result": "11.5 ± 3.4", "unit": "µM"},
      {"measurement": "ROS PROFILE M2 (ROS(+) cells)", "setting": "[2]", "result": "~13", "unit": "%"},
      {"measurement": "inhibition", "setting": "[3]; 0.003 mg/mL, 0 min", "result": "1.7 ± 1.1", "unit": "%"},
      {"measurement": "inhibition", "setting": "[3]; 0.003 mg/mL, 5 min", "result": "2.9 ± 1.1", "unit": "%"},
      {"measurement": "inhibition", "setting": "[3]; 0.003 mg/mL, 15 min", "result": "4.6 ± 1.2", "unit": "%"},
      {"measurement": "inhibition", "setting": "[3]; 0.003 mg/mL, 30 min", "result": "6.4 ± 1.3", "unit": "%"},
      {"measurement": "inhibition", "setting": "[3]; 0.003 mg/mL, 60 min", "result": "9.3 ± 1.4", "unit": "%"},
      {"measurement": "inhibition", "setting": "[3]; 0.003 mg/mL, 90 min", "result": "11.4 ± 1.5", "unit": "%"},
      {"measurement": "inhibition", "setting": "[3]; 0.003 mg/mL, 120 min", "result": "13 ± 1.6", "unit": "%"},
      {"measurement": "inhibition", "setting": "[3]; 0.03 mg/mL, 0 min", "result": "3.2 ± 2.4", "unit": "%"},
      {"measurement": "inhibition", "setting": "[3]; 0.03 mg/mL, 5 min", "result": "16.6 ± 3.1", "unit": "%"},
      {"measurement": "inhibition", "setting": "[3]; 0.03 mg/mL, 15 min", "result": "29.8 ± 3.4", "unit": "%"},
      {"measurement": "inhibition", "setting": "[3]; 0.03 mg/mL, 30 min", "result": "46.1 ± 3.9", "unit": "%"},
      {"measurement": "inhibition", "setting": "[3]; 0.03 mg/mL, 60 min", "result": "72.6 ± 6.2", "unit": "%"},
      {"measurement": "inhibition", "setting": "[3]; 0.03 mg/mL, 90 min", "result": "97.7 ± 0.6", "unit": "%"},
      {"measurement": "inhibition", "setting": "[3]; 0.03 mg/mL, 120 min", "result": "96.7 ± 2.5", "unit": "%"},
      {"measurement": "activity at 10 µM", "setting": "[4]", "result": "39.6 ± 14.3", "unit": "%"},
      {"measurement": "activity at 50 µM", "setting": "[4]", "result": "21.4 ± 1.5", "unit": "%"},
      {"measurement": "activity at 10 µM", "setting": "[5]; Homo sapiens, HTB-54, 48 h", "result": "36.8 ± 8.6", "unit": "%"},
      {"measurement": "activity at 50 µM", "setting": "[5]; Homo sapiens, HTB-54, 48 h", "result": "27.5 ± 6.5", "unit": "%"},
      {"measurement": "IC50", "setting": "[5]; [6]", "result": "< 10", "unit": "µM"},
      {"measurement": "SI", "setting": "[5]", "result": ">11.9"},
      {"measurement": "IC50", "setting": "[5]; read-out: IC50 HTB-54, Lung, MTT, 48 h", "result": "8.4 ± 3.9", "unit": "µM"}
    ]},
    {"smiles": "CCCNC(=[Se])NC(=O)c1ccco1", "note": "[Compound 1.I, N-(propylcarbamoselenoyl)furan-2-carboxamide]", "values": [
      {"measurement": "activity at 10 µM", "setting": "[1]", "result": "44.9 ± 4.8", "unit": "%"},
      {"measurement": "activity at 50 µM", "setting": "[1]", "result": "48.7 ± 3.1", "unit": "%"},
      {"measurement": "IC50", "setting": "[1]", "result": "9.5 ± 2.5", "unit": "µM"},
      {"measurement": "inhibition", "setting": "[3]; 0.003 mg/mL, 0 min", "result": 0, "unit": "%"},
      {"measurement": "inhibition", "setting": "[3]; 0.003 mg/mL, 5 min", "result": "1.1 ± 2", "unit": "%"},
      {"measurement": "inhibition", "setting": "[3]; 0.003 mg/mL, 15 min", "result": "3.5 ± 2", "unit": "%"},
      {"measurement": "inhibition", "setting": "[3]; 0.003 mg/mL, 30 min", "result": "6.6 ± 2", "unit": "%"},
      {"measurement": "inhibition", "setting": "[3]; 0.003 mg/mL, 60 min", "result": "11.7 ± 2.3", "unit": "%"},
      {"measurement": "inhibition", "setting": "[3]; 0.003 mg/mL, 90 min", "result": "15.5 ± 2.5", "unit": "%"},
      {"measurement": "inhibition", "setting": "[3]; 0.003 mg/mL, 120 min", "result": "17.5 ± 2.3", "unit": "%"},
      {"measurement": "time to reach the highest DPPH inhibition", "setting": "[3]; 0.03 mg/mL", "result": 60, "unit": "min"},
      {"measurement": "inhibition", "setting": "[3]; 0.03 mg/mL, 0 min", "result": "1.8 ± 1.5", "unit": "%"},
      {"measurement": "inhibition", "setting": "[3]; 0.03 mg/mL, 5 min", "result": "10.3 ± 4.3", "unit": "%"},
      {"measurement": "inhibition", "setting": "[3]; 0.03 mg/mL, 15 min", "result": "29.7 ± 4.1", "unit": "%"},
      {"measurement": "inhibition", "setting": "[3]; 0.03 mg/mL, 30 min", "result": "55.4 ± 5.1", "unit": "%"},
      {"measurement": "inhibition", "setting": "[3]; 0.03 mg/mL, 60 min", "result": "95.4 ± 4.1", "unit": "%"},
      {"measurement": "inhibition", "setting": "[3]; 0.03 mg/mL, 90 min", "result": "96.5 ± 0.7", "unit": "%"},
      {"measurement": "inhibition", "setting": "[3]; 0.03 mg/mL, 120 min", "result": "96.4 ± 0.6", "unit": "%"},
      {"measurement": "activity at 10 µM", "setting": "[4]", "result": "44.2 ± 7.1", "unit": "%"},
      {"measurement": "activity at 50 µM", "setting": "[4]", "result": "25.5 ± 4.2", "unit": "%"},
      {"measurement": "activity at 10 µM", "setting": "[5]; Homo sapiens, HTB-54, 48 h", "result": "47.1 ± 14.8", "unit": "%"},
      {"measurement": "activity at 50 µM", "setting": "[5]; Homo sapiens, HTB-54, 48 h", "result": "31.6 ± 8.2", "unit": "%"},
      {"measurement": "IC50", "setting": "[5]; [6]", "result": "< 10", "unit": "µM"},
      {"measurement": "SI", "setting": "[5]", "result": ">12.7"}
    ]}
  ]
}
